Test results taken from patent US5502036A, “Antiherpes pentapeptide derivatives having a substituted aspartic acid side chain” (priority 1989, dated 1996).
Where a SMILES comes first, the peptide text is derived from it. [ ]: non-standard residue; d: D form. The star is where a group is joined. Gly(1-COOH-cBu) = N[C@H](C(=O)O)C1(C(=O)O)CCC1; Hydrocinnamoyl = O=C(CCc1ccccc1)*; Pentanoyl(4-Me) = CC(C)CCC(=O)*; O(2S-octyl) = CCCCCC[C@H](C)O*; NHPhenethyl = c1ccc(CCN*)cc1; Tle = CC(C)(C)[C@H](N)C(=O)O; NMeV = CN[C@H](C(=O)O)C(C)C; Pyrrolidide = C1CCN(*)C1; NHIsopentyl = CC(C)CCN*; Boc = CC(C)(C)OC(=O)*; X6 = CC(C)C[C@H](C)N*; X2 = CCCCCCCCCCCCO*; X4 = CCCCCCCCN(C)*

Each compound was assayed against T1, HSV-1 ribonucleotide reductase (partially purified) (Human herpesvirus 1, UniProt P08543) (assay: biochemical). Settings: not given.
T1 construct: obtained from quiescent BHK-21/C13 cells infected with strain F HSV-1 virus; endogenous in cells; host or cells: quiescent BHK-21/C13 cells infected with HSV-1 strain F; enzyme partially purified (Cohen et al., J. Gen. Virol. 66, 733 (1985))
T1 sequence (P08543 whole entry): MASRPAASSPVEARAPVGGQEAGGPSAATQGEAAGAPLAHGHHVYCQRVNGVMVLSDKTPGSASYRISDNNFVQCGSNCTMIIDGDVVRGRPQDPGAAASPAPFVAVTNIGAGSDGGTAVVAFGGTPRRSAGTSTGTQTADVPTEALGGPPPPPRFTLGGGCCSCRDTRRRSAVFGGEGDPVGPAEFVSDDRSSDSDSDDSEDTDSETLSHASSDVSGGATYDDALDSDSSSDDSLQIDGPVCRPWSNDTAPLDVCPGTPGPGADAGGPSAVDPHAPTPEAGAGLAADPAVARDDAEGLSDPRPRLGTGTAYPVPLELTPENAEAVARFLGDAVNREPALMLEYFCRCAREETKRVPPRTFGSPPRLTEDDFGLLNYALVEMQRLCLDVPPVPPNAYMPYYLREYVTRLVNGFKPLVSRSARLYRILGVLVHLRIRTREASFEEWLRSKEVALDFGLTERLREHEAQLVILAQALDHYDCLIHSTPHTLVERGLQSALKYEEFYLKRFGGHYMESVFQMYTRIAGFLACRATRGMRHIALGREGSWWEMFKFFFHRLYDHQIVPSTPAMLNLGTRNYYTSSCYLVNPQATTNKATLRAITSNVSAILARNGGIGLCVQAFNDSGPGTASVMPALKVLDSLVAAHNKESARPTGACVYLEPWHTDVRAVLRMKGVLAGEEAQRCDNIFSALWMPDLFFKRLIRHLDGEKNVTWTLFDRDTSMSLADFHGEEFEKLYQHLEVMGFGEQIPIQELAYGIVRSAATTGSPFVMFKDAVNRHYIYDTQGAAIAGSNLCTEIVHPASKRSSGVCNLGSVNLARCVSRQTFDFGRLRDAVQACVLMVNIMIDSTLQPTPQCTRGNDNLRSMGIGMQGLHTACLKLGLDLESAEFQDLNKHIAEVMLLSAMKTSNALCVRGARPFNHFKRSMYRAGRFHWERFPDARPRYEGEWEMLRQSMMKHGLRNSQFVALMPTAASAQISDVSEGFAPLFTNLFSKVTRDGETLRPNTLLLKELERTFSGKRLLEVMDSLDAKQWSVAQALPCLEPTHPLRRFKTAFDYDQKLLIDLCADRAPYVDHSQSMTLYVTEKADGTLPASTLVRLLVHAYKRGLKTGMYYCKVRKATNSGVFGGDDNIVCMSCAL
Type: biochemical
Text: b) Assay and Results for Exemplified Peptides
Compound `CCCCCCCCCCCCOC(=O)C[C@H](NC(=O)[C@@H](NC(=O)[C@H](C(C)C)N(C)C(=O)CCc1ccccc1)[C@@H](C)CC)C(=O)N[C@@H](CC(=O)O)C(=O)N[C@@H](CC(C)C)C(=O)O` [Entry 29, PhCH2 CH2 CO--N--Me--Val--Ile--Asp(dodecyloxy)-Asp--Leu--OH] (Hydrocinnamoyl-[NMeV]ID(X2)DL-OH) has an IC50 of 4200 nM.
With `CCCCCC[C@H](C)OC(=O)C[C@H](NC(=O)[C@@H](NC(=O)[C@H](C(C)C)N(C)C(=O)CCC(C)C)[C@@H](C)CC)C(=O)N[C@@H](CC(=O)O)C(=O)N[C@@H](CC(C)C)C(=O)O` [Entry 30, 4-Methylpentanoyl-N--Me--Val--Ile--Asp 1(S)-methylheptyloxy!-Asp--Leu--OH] ({Pentanoyl(4-Me)}-[NMeV]ID(O(2S-octyl))DL-OH) the IC50 was 1700 nM.
Work on `CCCCCC[C@H](C)OC(=O)C[C@H](NC(=O)[C@@H](NC(=O)[C@H](C(C)C)N(C)C(=O)CCc1ccccc1)[C@@H](C)CC)C(=O)N[C@@H](CC(=O)O)C(=O)N[C@@H](CC(C)C)C(N)=O` [Entry 31, PhCH2 CH2 CO--N--Me--Val--Ile--Asp 1(S)-methylheptyloxy!-Asp--Leu--NH2] (Hydrocinnamoyl-[NMeV]ID(O(2S-octyl))DL-NH2) yielded an IC50 of 1900 nM.
Compound `CCCCCCCCN(C)C(=O)C[C@H](NC(=O)[C@@H](NC(=O)[C@H](C(C)C)N(C)C(=O)CCc1ccccc1)[C@@H](C)CC)C(=O)N[C@@H](CC(=O)O)C(=O)N[C@@H](CC(C)C)C(=O)O` [Entry 32, PhCH2 CH2 CO--N--Me--Val--Ile--Asp NMe(octyl)!-Asp--Leu--OH] (Hydrocinnamoyl-[NMeV]ID(X4)DL-OH) has an IC50 of 260 nM.
`CC(C)C[C@H](NC(=O)[C@@H](NC(=O)[C@H](CC(=O)N1CCCC1)NC(=O)[C@@H](NC(=O)[C@H](C(C)C)N(C)C(=O)CCc1ccccc1)C(C)(C)C)C1(C(=O)O)CCC1)C(=O)O` [Entry 33, PhCH2 CH2 CO--N--Me--Val--Tbg--Asp(pyrrolidino)-Asp(cyBu)-Leu--OH] (Hydrocinnamoyl-[NMeV][Tle]D(Pyrrolidide)[Gly(1-COOH-cBu)]L-OH) was tested, and the IC50 was 60 nM.
Work on `CCCCCC[C@H](C)OC(=O)C[C@H](NC(=O)[C@@H](NC(=O)[C@H](C(C)C)N(C)C(=O)CCc1ccccc1)[C@@H](C)CC)C(=O)N[C@@H](CC(=O)O)C(=O)N[C@@H](CC(C)C)C(=O)OC` [Entry 37, PhCH2 CH2 CO--N--Me--Val--Ile--Asp 1(S)-methylheptyloxy!-Asp--Leu--OCH3] (Hydrocinnamoyl-[NMeV]ID(O(2S-octyl))DL-OMe) yielded an IC50 of 2000 nM.
For `CC[C@H](C)[C@H](NC(=O)[C@H](C(C)C)N(C)C(=O)CCc1ccccc1)C(=O)N[C@@H](CC(=O)N1CCCC1)C(=O)N[C@@H](CC(=O)O)C(=O)NCCC(C)C` [Entry 38, PhCH2 CH2 CO--N--Me--Val--Ile--Asp(pyrrolidino)-Asp--NHCH2 CH2 CH(CH3)2] (Hydrocinnamoyl-[NMeV]ID(Pyrrolidide)D-NHIsopentyl), the IC50 was 1300 nM.
In the case of `CC[C@H](C)[C@H](NC(=O)[C@H](C(C)C)N(C)C(=O)CCc1ccccc1)C(=O)N[C@@H](CC(=O)N1CCCC1)C(=O)N[C@@H](CC(=O)O)C(=S)N[C@@H](CC(C)C)C(=O)O` [Entry 40, PhCH2 CH2 CO--N--Me--Val--Ile--Asp(pyrrolidino)-.PSI. CSNH!Asp--Leu--OH], the IC50 is reported as 160 nM.
In the case of `CC[C@H](C)[C@H](NC(=O)[C@H](C(C)C)N(C)C(=O)CCc1ccccc1)C(=O)N[C@@H](CC(=O)N1CCCC1)C(=O)N[C@@H](CC(=O)O)C(=O)N[C@@H](C)CC(C)C` [Entry 41, PhCH2 CH2 CO--N--Me--Val--Ile--Asp(pyrrolidino)-Asp--NHCH(CH3)CH2 CH(CH3)2] (Hydrocinnamoyl-[NMeV]ID(Pyrrolidide)D-X6), the IC50 is reported as 2600 nM.

Same assay, conditions: Table 4; concentration producing 50% of the maximal inhibition of enzyme activity; mean of four assays; read-out: IC50
`CC[C@H](C)[C@H](NC(=O)[C@H](C(C)C)N(C)C(=O)OC(C)(C)C)C(=O)N[C@@H](CC(=O)NCCc1ccccc1)C(=O)N[C@@H](CC(=O)O)C(=O)N[C@@H](CC(C)C)C(=O)O` [Entry 24, Boc--N--Me--Val--Ile--Asp(NHCH2 CH2 Ph)--Asp--Leu--OH] (Boc-[NMeV]ID(NHPhenethyl)DL-OH) gave an IC50 of 1600 nM.
